Measured values from ChEMBL document CHEMBL1145278, “Inhibitors of HCV NS5B polymerase. Part 2: Evaluation of the northern region of (2Z)-2-benzoylamino-3-(4-phenoxy-phenyl)-acrylic acid” (Bioorg Med Chem Lett, 2005).

Key:
[1] = molecular target: RNA-directed RNA polymerase (Hepacivirus hominis) (UniProt O39930); test: Effective dose for RNA dependent RNA polymerase Nonstructural protein 5B (HCV NS5B polymerase) in Hepatitis C virus
[2] = molecular target: RNA-directed RNA polymerase (Hepacivirus hominis, UniProt O39930); test: Inhibitory concentration against RNA dependent RNA polymerase Nonstructural protein 5B (HCV NS5B polymerase) in Hepatitis C virus
Chain of RNA-directed RNA polymerase (O39930 whole entry): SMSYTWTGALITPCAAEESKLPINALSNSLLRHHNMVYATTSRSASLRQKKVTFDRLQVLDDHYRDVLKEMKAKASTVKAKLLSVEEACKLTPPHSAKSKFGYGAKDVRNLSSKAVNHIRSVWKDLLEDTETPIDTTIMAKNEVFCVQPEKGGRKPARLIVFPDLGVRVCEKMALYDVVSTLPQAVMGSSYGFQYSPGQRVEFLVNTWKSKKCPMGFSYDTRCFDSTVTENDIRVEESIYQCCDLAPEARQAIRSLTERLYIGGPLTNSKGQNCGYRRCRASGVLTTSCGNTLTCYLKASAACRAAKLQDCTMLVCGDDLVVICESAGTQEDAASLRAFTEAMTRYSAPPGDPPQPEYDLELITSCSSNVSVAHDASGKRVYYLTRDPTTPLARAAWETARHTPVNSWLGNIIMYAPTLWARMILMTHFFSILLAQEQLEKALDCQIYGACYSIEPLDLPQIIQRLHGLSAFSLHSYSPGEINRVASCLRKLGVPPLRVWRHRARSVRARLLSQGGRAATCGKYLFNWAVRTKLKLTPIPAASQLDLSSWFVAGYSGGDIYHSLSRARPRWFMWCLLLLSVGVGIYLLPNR

[3] = molecular target: RNA-directed RNA polymerase (Hepacivirus hominis) (UniProt O39930); test: Cytotoxic concentration against RNA dependent RNA polymerase Nonstructural protein 5B (HCV NS5B polymerase) in Hepatitis C virus
[4] = molecular target: RNA-directed RNA polymerase (Hepacivirus hominis) (UniProt O39930); test: Ratio for cellular to RNA dependent RNA polymerase Nonstructural protein 5B activity in Hepatitis C virus
Rattus norvegicus [5] = test: Half life was determined upon oral administration to rat; type: functional, organism-based
[6] = Clearance measured in Sprague Dawley rat dosed at 5mg/kg; type: ADME, organism-based; settings: in vivo
[7] = Maximum concentration upon oral administration to rat at 5 mg/kg; type: ADME, organism-based; set-up: dose 5 mg/kg, route oral; settings: in vivo
Rattus norvegicus [8] = test: Oral bioavailability in rat; type: functional, organism-based

Chain of RNA-directed RNA polymerase (Hepacivirus hominis) (O39930 1-591): as the sequence (O39930 whole entry) above

| SMILES | ED50 [1] | IC50 [2] | CC50 [3] | Ratio [4] | T1/2 (Rattus norvegicus [5]) | clearance [6] | Cmax [7] | bioavailability (Rattus norvegicus [8]) |
| --- | --- | --- | --- | --- | --- | --- | --- | --- |
| O=C(O)/C(=C/c1ccc(Oc2ccccc2Br)cc1)NC(=O)C12CC3CC(CC(C3)C1)C2 | > 100 µM |  |  |  |  |  |  |  |
| O=C(Nc1ccccc1O)/C(=C/c1ccc(Oc2ccccc2Br)cc1)NC(=O)c1ccccc1 | > 50 µM | 15 µM | > 50 µM |  |  |  |  |  |
| O=C(CCc1ccc(F)cc1)N/C(=C\c1ccc(Oc2ccccc2Br)cc1)C(=O)O | > 100 µM | 0.6 µM | > 100 µM |  |  |  |  |  |
| O=C(CCc1ccc(C(F)(F)F)cc1)N/C(=C\c1ccc(Oc2ccccc2Br)cc1)C(=O)O | > 100 µM | 0.37 µM | > 100 µM |  |  |  |  |  |
| Cc1ccc(CCC(=O)N/C(=C\c2ccc(Oc3ccccc3Br)cc2)C(=O)O)cc1 | > 100 µM | 2.6 µM | > 100 µM |  |  |  |  |  |
| O=C(CCC1CCCC1)N/C(=C\c1ccc(Oc2ccccc2C(F)(F)F)cc1)C(=O)O | 5 µM | 6.3 µM | > 100 µM | 0.7 |  |  |  |  |
| O=C(Nc1ccccc1)/C(=C/c1ccc(Oc2ccccc2Br)cc1)NC(=O)c1ccccc1 | > 50 µM | > 100 µM | > 50 µM |  |  |  |  |  |
| O=C(CC1CCCCC1)N/C(=C\c1ccc(Oc2ccccc2Br)cc1)C(=O)O | > 100 µM | 2.2 µM |  |  |  |  |  |  |
| O=C(CCC1CCCCC1)N/C(=C\c1ccc(Oc2ccccc2Br)cc1)C(=O)O | > 100 µM | 13 µM |  |  |  |  |  |  |
| O=C(O)/C(=C/c1ccc(Oc2ccccc2Br)cc1)NC(=O)c1ccccc1O | > 100 µM | 0.08 µM | > 100 µM |  |  |  |  |  |
| O=C(O)/C(=C/c1ccc(Oc2ccccc2Br)cc1)NC(=O)C1CC2CCC1C2 (stereo unspecified) | > 100 µM | 0.1 µM |  |  |  |  |  |  |
| O=C(Cc1ccc(Cl)cc1)N/C(=C\c1ccc(Oc2ccccc2Br)cc1)C(=O)O | > 100 µM | 0.94 µM | > 100 µM |  |  |  |  |  |
| Nc1ccc(Oc2ccc(/C=C(\NC(=O)CCC3CCCC3)C(=O)O)cc2)c(C(F)(F)F)c1 | 5 µM | 14 µM | > 50 µM | 0.4 |  |  |  |  |
| CC(O)C(=O)N/C(=C\c1ccc(Oc2ccccc2I)cc1)C(=O)O (stereo unspecified) | > 100 µM | 4.8 µM |  |  |  |  |  |  |
| O=C(CCC1CCCC1)N/C(=C\c1ccc(Oc2ccc(F)cc2Br)cc1)C(=O)O | 12 µM | 15 µM | > 100 µM | 0.8 |  |  |  |  |
| O=C(CCC1CCCC1)N/C(=C\c1ccc(Oc2ccccc2Br)cc1)C(=O)O | 12 µM | 6 µM | > 100 µM | 2 |  |  |  |  |
| CONC(=O)/C(=C/c1ccc(Oc2ccccc2Br)cc1)NC(=O)c1ccccc1 | > 50 µM | 0.8 µM | 22 µM |  |  |  |  |  |
| O=C(O)/C(=C/c1ccc(Oc2ccccc2Br)cc1)NC(=O)c1ccccc1 | 28 µM |  | > 100 µM | 280 | 1.5 h | 3.33 mL/min/kg | 9 µM | 21% |
| O=C(O)/C(=C/c1ccc(Oc2ccccc2Br)cc1)NC(=O)c1cccc(F)c1 | 53 µM | 0.09 µM | > 100 µM |  |  |  |  |  |
| O=C(CCC1CCCC1)N/C(=C\c1ccc(Oc2ccccc2I)cc1)C(=O)O | 15 µM | 7 µM |  | 2 |  |  |  |  |
| NNC(=O)/C(=C/c1ccc(Oc2ccccc2Br)cc1)NC(=O)c1ccccc1 | > 50 µM | 1 µM | > 50 µM |  |  |  |  |  |
| CCc1ccccc1C(=O)N/C(=C\c1ccc(Oc2ccccc2Br)cc1)C(=O)O | 70 µM | 0.05 µM | > 100 µM |  |  |  |  |  |
| Cc1ccc(C(=O)N/C(=C\c2ccc(Oc3ccccc3Br)cc2)C(=O)O)cc1 | > 100 µM | 0.25 µM | > 100 µM |  |  |  |  |  |
| O=C(O)CCCC(=O)N/C(=C\c1ccc(Oc2ccccc2I)cc1)C(=O)O | > 100 µM | 0.83 µM |  |  |  |  |  |  |
| O=C(O)/C(=C/c1ccc(Oc2ccccc2Br)cc1)NC(=O)c1ccc(F)c(F)c1 | > 100 µM | 0.23 µM | > 100 µM |  |  |  |  |  |

| SMILES | ED50 [1] | IC50 [2] | CC50 [3] | Ratio [4] | T1/2 (Rattus norvegicus [5]) | clearance [6] | Cmax [7] | bioavailability (Rattus norvegicus [8]) |
| --- | --- | --- | --- | --- | --- | --- | --- | --- |
| O=C(O)/C(=C/c1ccc(Oc2ccccc2Br)cc1)NC(=O)c1ccc(Cl)cc1 | > 100 µM | 0.11 µM | > 100 µM |  |  |  |  |  |
| NC(=O)/C(=C/c1ccc(Oc2ccccc2Br)cc1)NC(=O)c1ccccc1 | 20 µM | 0.5 µM | 45 µM |  |  |  |  |  |
| O=C(Nc1cccc(O)c1)/C(=C/c1ccc(Oc2ccccc2Br)cc1)NC(=O)c1ccccc1 | 15 µM | 1.9 µM | 25 µM |  |  |  |  |  |
| O=C(CCc1ccc(Cl)cc1)N/C(=C\c1ccc(Oc2ccccc2Br)cc1)C(=O)O | > 100 µM | 0.5 µM | > 100 µM |  |  |  |  |  |
| O=C(Nc1ccccc1C(=O)O)/C(=C/c1ccc(Oc2ccccc2Br)cc1)NC(=O)c1ccccc1 | > 50 µM | 0.4 µM | > 50 µM |  |  |  |  |  |
| O=C(CC1CCCC1)N/C(=C\c1ccc(Oc2ccccc2Br)cc1)C(=O)O | > 100 µM | 0.85 µM |  |  |  |  |  |  |
| O=C(O)/C(=C/c1ccc(Oc2ccccc2Br)cc1)NC(=O)C1CCCCC1 | > 100 µM | 0.2 µM |  |  |  |  |  |  |
| O=C(Cc1ccc(I)cc1)N/C(=C\c1ccc(Oc2ccccc2Br)cc1)C(=O)O | > 100 µM | 1 µM | > 100 µM |  |  |  |  |  |
| O=C(O)/C(=C/c1ccc(Oc2ccccc2Br)cc1)NC(=O)c1ccc(Br)cc1 | > 100 µM | 0.12 µM | > 100 µM |  |  |  |  |  |
| O=C(O)/C(=C/c1ccc(Oc2ccccc2I)cc1)NC(=O)C(O)c1ccccc1 (stereo unspecified) | > 100 µM | 3.1 µM |  |  |  |  |  |  |
| O=C(Cc1ccc(Br)cc1)N/C(=C\c1ccc(Oc2ccccc2Br)cc1)C(=O)O | > 100 µM | 0.82 µM | > 100 µM |  |  |  |  |  |
| CCc1ccccc1Oc1ccc(/C=C(\NC(=O)CCC2CCCC2)C(=O)O)cc1 | 15 µM | 7.1 µM | > 100 µM | 2 |  |  |  |  |
| O=C(Cc1ccc(F)cc1)N/C(=C\c1ccc(Oc2ccccc2Br)cc1)C(=O)O | > 100 µM | 2.2 µM | > 100 µM |  |  |  |  |  |
| O=C(O)/C(=C/c1ccc(Oc2ccccc2I)cc1)NC(=O)C1CC1 | > 100 µM | 2.8 µM |  |  |  |  |  |  |
| O=C(O)/C(=C/c1ccc(Oc2ccccc2Br)cc1)NC(=O)c1ccc(F)cc1F | > 100 µM | 0.23 µM | > 100 µM |  |  |  |  |  |
| O=C(Cc1ccc(C(F)(F)F)cc1)N/C(=C\c1ccc(Oc2ccccc2Br)cc1)C(=O)O | > 100 µM | 1 µM | 18 µM |  |  |  |  |  |
| O=C(O)/C(=C/c1ccc(Oc2ccccc2Br)cc1)NC(=O)c1ccccc1F | > 100 µM | 0.18 µM | > 100 µM |  |  |  |  |  |
| O=C(NCCO)/C(=C/c1ccc(Oc2ccccc2Br)cc1)NC(=O)c1ccccc1 | 8 µM | 2.7 µM | > 50 µM | 3 | 1 h | 53.3 mL/min/kg | 1.5 µM | 76% |
| O=C(CO)N/C(=C\c1ccc(Oc2ccccc2I)cc1)C(=O)O | > 100 µM | 2 µM |  |  |  |  |  |  |
| O=C(O)/C(=C/c1ccc(Oc2c(F)cccc2Br)cc1)NC(=O)c1ccccc1 | 60 µM |  |  |  |  |  |  |  |
| O=C(Nc1ccc(O)cc1)/C(=C/c1ccc(Oc2ccccc2Br)cc1)NC(=O)c1ccccc1 | > 50 µM | 12 µM | 22 µM |  |  |  |  |  |
| O=C(O)CNC(=O)/C(=C/c1ccc(Oc2ccccc2Br)cc1)NC(=O)c1ccccc1 | > 50 µM | 0.06 µM | > 50 µM |  |  |  |  |  |
| O=C(O)CCC(=O)N/C(=C\c1ccc(Oc2ccccc2I)cc1)C(=O)O | > 100 µM | 0.79 µM |  |  |  |  |  |  |
| O=C(NCc1ccccc1)/C(=C/c1ccc(Oc2ccccc2Br)cc1)NC(=O)c1ccccc1 | > 50 µM | > 100 µM | > 50 µM |  |  |  |  |  |
